Data reported in patent publication US11975009B2, “Use of zinc porphyrin as an antimicrobial” (ZNABLE LLC, priority 2022, dated 2024).

Key:
[1] = tested on: Pseudomonas aeruginosa (GN); assay: Killing activity against a range of bacteria; format: cell-based
ex-vivo grown lung cells = assay: Toxicity to ex-vivo grown lung cells versus effective concentration
[2] = tested on: Mycobacterium smegmatis (proxy for M. tuberculosis); assay: Killing activity against a range of bacteria; format: cell-based
A549 cells = assay: Lung cell toxicity, traditional cell culture; format: cell-based, human; details: concentration exceeding therapeutic range
From the text: Sample represented in graph is a traditional cell culture model and the cells were A549 cells—human lung epithelial cells.

[3] = tested on: Human airway epithelial (BEAS2B, 16HBE, CFBE) and alveolar epithelial (A549) cells; assay: LDH in supernatant of pulmonary cell lines; format: cell-based
Procedure: Representative of one experiment.
Human airway epithelial (BEAS2B, 16HBE, CFBE) and alveolar epithelial (A549) cells were cultured, plated on 12-well plates, serum starved overnight, and treated with increasing doses of ZnPor. Cell culture supernatants were collected after 48 h of treatment, and supernatants were then assayed for lactate dehydrogenase (LDH), a general marker of cell death released into the supernatant after cell lysis.

[4] = tested on: planktonic PsA PAO1 cells; assay: Syber Green entry into planktonic cells (permeabilization); format: cell-based, Pseudomonas aeruginosa; details: pre-treated planktonic PsA cells
Procedure: Syber Green™ can pass through the cell wall into PsA cells pre-treated with ZnPor (II) at concentrations as low as 1 μg/mL; this is below the MIC (4 ug/m). Cells treated with ZnPor (II) allowed the entry of the Syber Green molecule even at sub-MIC concentrations of ZnPor (II).

PsA PA14 biofilms = assay: PA14 biofilm on polyethylene coupons, LIVE/DEAD stain, CLSM; format: cell-based, Pseudomonas aeruginosa; details: ZnPor 25 μg/mL 2 h, then PEV2 (MOI 10:1) 4 h
Procedure: Biofilms were grown on polyethylene coupons in CDC approved bioreactors in MSG media for […]. Overnight media was replaced with PBS and biofilms were treated as follows: (FIG. 19A) Control (no additions), (FIG. 19B) ZnPor (25 μg/mL) for 2 hours, (FIG. 19C) Phage PEV2 (MOI of 10:1) for 4 hours, or (FIG. 19D) ZnPor (25 μg/mL) for 2 hours followed by the addition of Phage PEV2 (MOI of 10:1) for 4 hours. Coupons were gently washed in distilled water and were treated with LIVE/DEAD™ stain. All coupons were imaged using confocal laser scanning […] microscopy (CLSM) at 60×.

PsA = assay: Testing for bacterial resistance; format: cell-based, Pseudomonas aeruginosa
From the text: One of the major concerns of developing novel small molecule antimicrobials is the potential for bacteria to develop resistance. […] The mechanism of action and target are believed to explain the absence of resistance. An MBC:MIC ratio of 2 which is what we derived from kill curves, was considered an indication of lack of resistance.

[5] = tested on: Coronavirus isolated from a cold (ATCC); assay: Anti-viral activity against a Coronavirus; format: cell-based; details: without light activation
From the text: ZnPor (II) can interact with many macromolecules and may bind to important components of a virus, rendering it unable to infect cells. […] This is due to the high levels of ROSs (Reactive Oxygen Species, e.g., superoxide) produced by activation of the porphyrin and which destroy a wide range of macromolecules (proteins, lipids etc.). […] ZnPor can bind to proteins, which may have accounted for how ZnPor (II) acted, in that it bound to the viral proteins such as the spike protein of Coronaviruses. If the Spike proteins bound to ZnPor (II) then the virus couldn't attach to the host cell binding receptor for the spike proteins. There are relatively few antiviral agents. While there are a number of porphyrins that can inactivate viruses using light activation, ZnPor (II) porphyrin has antiviral activity without light activation.

[6] = tested on: Mycobacterium tuberculosis; assay: Killing of acid fast bacterium; format: cell-based
From the text: ZnPor (II) is the only porphyrin that kills Gram-positive and Gram-negative bacteria without photoactivation. […] Additionally, ZnPor (II) inactivates the bacteriophage PEV2, a well-studied bacteriophage of Pseudomonas aeruginosa. PEV2 is currently being used in phage therapy in Europe. […] While ZnPor (II) can inactivate phage, at lower concentrations it can act synergistically with bacteriophage PEV2 or the purified genome of PEV2 in remediation of biofilms of PsA. This is referred to as PAS Phage Antibiotic Synergy (PAS) and is of great interest and intense study; as a means to overcome several known limitations of phage-only “Phage Therapy”.

phage PEV2 = assay: Inactivation of phage PEV2 (PFU titer); parameters: species or system Pseudomonas phage PEV2
Procedure: Phage PEV2 was diluted to 10^9 PFU/mL in phage buffer and treated with ZnPor (25 μg/mL) for a total of 4 hours. A 300 W light was used to photoactivate ZnPor_light treatments for 20 minutes. Measurements of plaque forming units (PFU/mL) were taken at each timepoint by serially diluting phage to determine titer using a soft agar overlay protocol. Data from 3 separate experiments represents total mean±standard error, total (n=8).

[7] = tested on: S. aureus MSSA and MRSA strains (GP); assay: Killing activity against a range of bacteria; format: cell-based, Staphylococcus aureus

meso-5,10,15-tris(N-methyl-4-pyridyl)-20-(pentafluorophenyl)porphyrinatozinc(II), tris-p-toluene sulfonate [ZnPor]
killing [1]: effective at killing | effective concentration, fold lower than that causing any toxicity (ex-vivo grown lung cells): up to 100 × | killing [2]: effective at killing | toxicity (A549 cells): No toxicity was observed | LDH dose response ([3]; 16HBE, CFBE, and A549 cells): dose response of decreased LDH | LDH in cell culture supernatant vs treatment without ZnPor ([3]; 48 h of treatment, increasing doses): significantly less LDH | lowest ZnPor (II) concentration allowing Syber Green entry [4]: 1 µg/mL | effect on PA14 cells towards PEV2 phage (PsA PA14 biofilms): sensitive to PEV2 phage | colony growth on LB plates (PsA; 2×, 4× and 8×MIC concentration of ZnPor with PsA cell): No colony growth | resistance (PsA; during 8 years of testing): no resistance was observed | viral infection [5]: prevented viral infection | killing [6]: effective at killing | effect of photoactivation on killing (phage PEV2; with photoactivation): quicker and greater killing | inactivation of viruses (phage PEV2; without light activation): able to inactivate viruses without light activation | effect on bacteriophage PEV2 (phage PEV2; without photoactivation): inactivates | killing [7]: effective at killing
